{"source": "PubChem BioAssay (NCI)", "assay_in_all_cases": "NCI-60 cell line screen, 48 h", "key": {"[1]": {"tested_on": "786-0 renal"}, "[2]": {"tested_on": "SR leukemia"}, "[3]": {"tested_on": "NCI/ADR-RES ovarian"}, "[4]": {"tested_on": "UACC-257 melanoma"}, "[5]": {"tested_on": "SK-MEL-2 melanoma"}, "[6]": {"tested_on": "UO-31 renal"}, "[7]": {"tested_on": "MDA-MB-231 breast"}, "[8]": {"tested_on": "K-562 leukemia"}, "[9]": {"tested_on": "MCF7 breast"}, "[10]": {"tested_on": "MALME-3M melanoma"}, "[11]": {"tested_on": "NCI-H460 lung"}, "[12]": {"tested_on": "SNB-75 CNS"}, "[13]": {"tested_on": "BT-549 breast"}, "[14]": {"tested_on": "MDA-MB-468 breast"}, "[15]": {"tested_on": "HCC-2998 colon"}, "[16]": {"tested_on": "SK-OV-3 ovarian"}, "[17]": {"tested_on": "SN12C renal"}, "[18]": {"tested_on": "HOP-62 NSCLC"}, "[19]": {"tested_on": "CAKI-1 renal"}, "[20]": {"tested_on": "A549 NSCLC"}, "[21]": {"tested_on": "M14 melanoma"}, "[22]": {"tested_on": "SK-MEL-28 melanoma"}, "[23]": {"tested_on": "OVCAR-4 ovarian"}, "[24]": {"tested_on": "SK-MEL-5 melanoma"}, "[25]": {"tested_on": "RPMI-8226 leukemia"}, "[26]": {"tested_on": "NCI-H23 lung"}, "[27]": {"tested_on": "KM12 colon"}, "[28]": {"tested_on": "HOP-92 NSCLC"}, "[29]": {"tested_on": "EKVX NSCLC"}, "[30]": {"tested_on": "SNB-19 CNS"}}, "note": "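These data come from cells grown in 96-well plates and exposed to compound for 48 hours at five concentrations. Here, GI50 denotes the concentration required for 50% inhibition of growth. TGI marks complete inhibition of growth.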", "data": [{"smiles": "CC1(C)CC[C@]2(C(=O)O)CC[C@]3(C)C(=CCC4[C@@]5(C)C[C@@H](O)[C@@H]6OC(c7ccc(F)cc7)OC[C@@]6(C)C5CC[C@]43C)C2C1", "note": "(some centres undefined)", "values": [{"measurement": "GI50", "setting": "[1]", "result": 7.56, "unit": "µM"}, {"measurement": "TGI", "setting": "[1]", "result": 27.5, "unit": "µM"}, {"measurement": "GI50", "setting": "[2]", "result": 4.18, "unit": "µM"}, {"measurement": "TGI", "setting": "[2]", "result": 37, "unit": "µM"}, {"measurement": "GI50", "setting": "[3]", "result": 4.3, "unit": "µM"}, {"measurement": "TGI", "setting": "[3]", "result": 22.8, "unit": "µM"}, {"measurement": "GI50", "setting": "[4]", "result": 10.9, "unit": "µM"}, {"measurement": "TGI", "setting": "[4]", "result": 31, "unit": "µM"}, {"measurement": "GI50", "setting": "[5]", "result": 9.47, "unit": "µM"}, {"measurement": "TGI", "setting": "[5]", "result": 24.2, "unit": "µM"}, {"measurement": "GI50", "setting": "[6]", "result": 4.17, "unit": "µM"}, {"measurement": "TGI", "setting": "[6]", "result": 21.7, "unit": "µM"}, {"measurement": "GI50", "setting": "[7]", "result": 13, "unit": "µM"}, {"measurement": "TGI", "setting": "[7]", "result": 28.7, "unit": "µM"}, {"measurement": "GI50", "setting": "[8]", "result": 2260, "unit": "nM"}, {"measurement": "TGI", "setting": "[8]", "result": "> 100", "unit": "µM"}, {"measurement": "GI50", "setting": "[9]", "result": 4.03, "unit": "µM"}, {"measurement": "TGI", "setting": "[9]", "result": 28.2, "unit": "µM"}, {"measurement": "GI50", "setting": "[10]", "result": 8.39, "unit": "µM"}, {"measurement": "TGI", "setting": "[10]", "result": 22.9, "unit": "µM"}, {"measurement": "GI50", "setting": "[11]", "result": 4.38, "unit": "µM"}, {"measurement": "TGI", "setting": "[11]", "result": 18.1, "unit": "µM"}, {"measurement": "GI50", "setting": "[12]", "result": 2050, "unit": "nM"}, {"measurement": "TGI", "setting": "[12]", "result": 45.3, "unit": "µM"}, {"measurement": "GI50", "setting": "[13]", "result": 4.34, "unit": "µM"}, {"measurement": "TGI", "setting": "[13]", "result": 17.9, "unit": "µM"}, {"measurement": "GI50", "setting": "[14]", "result": 3.26, "unit": "µM"}, {"measurement": "TGI", "setting": "[14]", "result": 19.5, "unit": "µM"}, {"measurement": "GI50", "setting": "[15]", "result": 4.34, "unit": "µM"}, {"measurement": "TGI", "setting": "[15]", "result": 14.8, "unit": "µM"}, {"measurement": "GI50", "setting": "[16]", "result": 11.6, "unit": "µM"}, {"measurement": "TGI", "setting": "[16]", "result": 39.2, "unit": "µM"}, {"measurement": "GI50", "setting": "[17]", "result": 7.55, "unit": "µM"}, {"measurement": "TGI", "setting": "[17]", "result": 30.2, "unit": "µM"}, {"measurement": "GI50", "setting": "[18]", "result": 6.68, "unit": "µM"}, {"measurement": "TGI", "setting": "[18]", "result": 29.6, "unit": "µM"}, {"measurement": "GI50", "setting": "[19]", "result": 9.28, "unit": "µM"}, {"measurement": "TGI", "setting": "[19]", "result": 26.3, "unit": "µM"}, {"measurement": "GI50", "setting": "[20]", "result": 2810, "unit": "nM"}, {"measurement": "TGI", "setting": "[20]", "result": 16.5, "unit": "µM"}, {"measurement": "GI50", "setting": "[21]", "result": 10.7, "unit": "µM"}, {"measurement": "TGI", "setting": "[21]", "result": 27, "unit": "µM"}, {"measurement": "GI50", "setting": "[22]", "result": 12.5, "unit": "µM"}, {"measurement": "TGI", "setting": "[22]", "result": 25.4, "unit": "µM"}, {"measurement": "GI50", "setting": "[23]", "result": 5.63, "unit": "µM"}, {"measurement": "TGI", "setting": "[23]", "result": 38.4, "unit": "µM"}, {"measurement": "GI50", "setting": "[24]", "result": 4.13, "unit": "µM"}, {"measurement": "TGI", "setting": "[24]", "result": 16.2, "unit": "µM"}, {"measurement": "GI50", "setting": "[25]", "result": 4.35, "unit": "µM"}, {"measurement": "TGI", "setting": "[25]", "result": "> 100", "unit": "µM"}, {"measurement": "GI50", "setting": "[26]", "result": 4.95, "unit": "µM"}, {"measurement": "TGI", "setting": "[26]", "result": 21.1, "unit": "µM"}, {"measurement": "GI50", "setting": "[27]", "result": 4.2, "unit": "µM"}, {"measurement": "TGI", "setting": "[27]", "result": 18.9, "unit": "µM"}, {"measurement": "GI50", "setting": "[28]", "result": 5.32, "unit": "µM"}, {"measurement": "TGI", "setting": "[28]", "result": 27.6, "unit": "µM"}, {"measurement": "GI50", "setting": "[29]", "result": 3.14, "unit": "µM"}, {"measurement": "TGI", "setting": "[29]", "result": 15.3, "unit": "µM"}, {"measurement": "GI50", "setting": "[30]", "result": 7.35, "unit": "µM"}]}]}
